Species: Rattus norvegicus
Test: DrugMatrix - Regimen: Daily Repeat
Format: toxicity, organism-based, Sprague-Dawley
Parameters: regimen Daily Repeat, gender Male, age 6-8 weeks
Conditions: in vivo, po, route oral GAVAGE, vehicle .5 % CMC; for BASOPHIL / EOSINOPHIL / ERYTHROCYTE COUNT / HEMATOCRIT / HEMOGLOBIN / LEUKOCYTE COUNT / LYMPHOCYTE / MEAN CORPUSCULAR HEMOGLOBIN / MEAN CORPUSCULAR HEMOGLOBIN CONCENTRATION / MEAN CORPUSCULAR VOLUME / MONOCYTE / NEUTROPHIL / PLATELET COUNT: tissue Blood; for ALANINE AMINOTRANSFERASE / ALBUMIN / ALKALINE PHOSPHATASE / ASPARTATE AMINOTRANSFERASE / BLOOD UREA NITROGEN / CHLORIDE / CHOLESTEROL / CREATINE PHOSPHOKINASE / CREATININE / GLUCOSE / PHOSPHORUS / POTASSIUM / SODIUM / TOTAL BILIRUBIN / TOTAL PROTEIN: tissue Plasma
[1] = 0 mg/kg, 72 h, dose level Control, time 3 day
[2] = 0 mg/kg, 120 h, dose level Control, time 5 day
[3] = 38 mg/kg, 72 h, dose level Low, time 3 day
[4] = 38 mg/kg, 120 h, dose level Low, time 5 day
[5] = 269 mg/kg, 72 h, dose level High, time 3 day
[6] = 269 mg/kg, 120 h, dose level High, time 5 day

CCCNC(=O)NS(=O)(=O)c1ccc(Cl)cc1 [CHLORPROPAMIDE]
BASOPHIL [1]: 0% | EOSINOPHIL [1]: 0.33% | ERYTHROCYTE COUNT [1]: 6.2 x10E6/uL | HEMATOCRIT [1]: 38.08% | HEMOGLOBIN [1]: 14.92 G/DL | LEUKOCYTE COUNT [1]: 11.13 x10E3/uL | LYMPHOCYTE [1]: 76% | MEAN CORPUSCULAR HEMOGLOBIN [1]: 24.1 pg | MEAN CORPUSCULAR HEMOGLOBIN CONCENTRATION [1]: 39.17 G/DL | MEAN CORPUSCULAR VOLUME [1]: 61.48 fL | MONOCYTE [1]: 3.83% | NEUTROPHIL [1]: 19.83% | PLATELET COUNT [1]: 1327.5 x10E3/uL | ALANINE AMINOTRANSFERASE [1]: 40.17 u/L | ALBUMIN [1]: 4.07 G/DL | ALKALINE PHOSPHATASE [1]: 372 u/L | ASPARTATE AMINOTRANSFERASE [1]: 67.17 u/L | BLOOD UREA NITROGEN [1]: 18.83 mg/dL | CHLORIDE [1]: 105.17 MEQ/L | CHOLESTEROL [1]: 78.17 mg/dL | CREATINE PHOSPHOKINASE [1]: 149.17 u/L | CREATININE [1]: 0.57 mg/dL | GLUCOSE [1]: 185.17 mg/dL | PHOSPHORUS [1]: 11.43 mg/dL | POTASSIUM [1]: 6.78 MEQ/L | SODIUM [1]: 152.83 MEQ/L | TOTAL BILIRUBIN [1]: 0.4 mg/dL | TOTAL PROTEIN [1]: 6.87 G/DL | BASOPHIL [2]: 0% | EOSINOPHIL [2]: 0% | ERYTHROCYTE COUNT [2]: 6.05 x10E6/uL | HEMATOCRIT [2]: 36.55% | HEMOGLOBIN [2]: 14.7 G/DL | LEUKOCYTE COUNT [2]: 11.8 x10E3/uL | LYMPHOCYTE [2]: 86.83% | MEAN CORPUSCULAR HEMOGLOBIN [2]: 24.37 pg | MEAN CORPUSCULAR HEMOGLOBIN CONCENTRATION [2]: 40.32 G/DL | MEAN CORPUSCULAR VOLUME [2]: 60.47 fL | MONOCYTE [2]: 0.83% | NEUTROPHIL [2]: 12.33% | PLATELET COUNT [2]: 1177 x10E3/uL | ALANINE AMINOTRANSFERASE [2]: 41.83 u/L | ALBUMIN [2]: 3.75 G/DL | ALKALINE PHOSPHATASE [2]: 377.5 u/L | ASPARTATE AMINOTRANSFERASE [2]: 60.83 u/L | BLOOD UREA NITROGEN [2]: 16 mg/dL | CHLORIDE [2]: 105.67 MEQ/L | CHOLESTEROL [2]: 67.83 mg/dL | CREATINE PHOSPHOKINASE [2]: 120.33 u/L | CREATININE [2]: 0.6 mg/dL | GLUCOSE [2]: 167.67 mg/dL | PHOSPHORUS [2]: 10.03 mg/dL | POTASSIUM [2]: 6.68 MEQ/L | SODIUM [2]: 150.5 MEQ/L | TOTAL BILIRUBIN [2]: 0.57 mg/dL | TOTAL PROTEIN [2]: 6.25 G/DL | BASOPHIL [3]: 0% | EOSINOPHIL [3]: 0% | ERYTHROCYTE COUNT [3]: 5.72 x10E6/uL | HEMATOCRIT [3]: 35.8% | HEMOGLOBIN [3]: 13.93 G/DL | LEUKOCYTE COUNT [3]: 12.2 x10E3/uL | LYMPHOCYTE [3]: 81% | MEAN CORPUSCULAR HEMOGLOBIN [3]: 24.4 pg | MEAN CORPUSCULAR HEMOGLOBIN CONCENTRATION [3]: 38.9 G/DL | MEAN CORPUSCULAR VOLUME [3]: 62.73 fL | MONOCYTE [3]: 1.67% | NEUTROPHIL [3]: 17.33% | PLATELET COUNT [3]: 1327 x10E3/uL | ALANINE AMINOTRANSFERASE [3]: 39.33 u/L | ALBUMIN [3]: 3.73 G/DL | ALKALINE PHOSPHATASE [3]: 318.67 u/L | ASPARTATE AMINOTRANSFERASE [3]: 61.33 u/L | BLOOD UREA NITROGEN [3]: 14.33 mg/dL | CHLORIDE [3]: 105.67 MEQ/L | CHOLESTEROL [3]: 77.33 mg/dL | CREATINE PHOSPHOKINASE [3]: 126.33 u/L | CREATININE [3]: 0.57 mg/dL | GLUCOSE [3]: 180.33 mg/dL | PHOSPHORUS [3]: 11.27 mg/dL | POTASSIUM [3]: 6.7 MEQ/L | SODIUM [3]: 151.33 MEQ/L | TOTAL BILIRUBIN [3]: 0.33 mg/dL | TOTAL PROTEIN [3]: 6.07 G/DL | BASOPHIL [4]: 0% | EOSINOPHIL [4]: 0.33% | ERYTHROCYTE COUNT [4]: 6.28 x10E6/uL | HEMATOCRIT [4]: 38.47% | HEMOGLOBIN [4]: 15 G/DL | LEUKOCYTE COUNT [4]: 16.07 x10E3/uL | LYMPHOCYTE [4]: 86.67% | MEAN CORPUSCULAR HEMOGLOBIN [4]: 23.93 pg | MEAN CORPUSCULAR HEMOGLOBIN CONCENTRATION [4]: 39 G/DL | MEAN CORPUSCULAR VOLUME [4]: 61.4 fL | MONOCYTE [4]: 1.67% | NEUTROPHIL [4]: 11.33% | PLATELET COUNT [4]: 1190.33 x10E3/uL | ALANINE AMINOTRANSFERASE [4]: 35.67 u/L | ALBUMIN [4]: 3.7 G/DL | ALKALINE PHOSPHATASE [4]: 350 u/L | ASPARTATE AMINOTRANSFERASE [4]: 61.33 u/L | BLOOD UREA NITROGEN [4]: 14.33 mg/dL | CHLORIDE [4]: 106.33 MEQ/L | CHOLESTEROL [4]: 65 mg/dL | CREATINE PHOSPHOKINASE [4]: 140.67 u/L | CREATININE [4]: 0.6 mg/dL | GLUCOSE [4]: 178 mg/dL | PHOSPHORUS [4]: 11 mg/dL | POTASSIUM [4]: 6.43 MEQ/L | SODIUM [4]: 149.33 MEQ/L | TOTAL BILIRUBIN [4]: 0.37 mg/dL | TOTAL PROTEIN [4]: 6.1 G/DL | BASOPHIL [5]: 0% | EOSINOPHIL [5]: 0.33% | ERYTHROCYTE COUNT [5]: 6.04 x10E6/uL | HEMATOCRIT [5]: 37% | HEMOGLOBIN [5]: 14.33 G/DL | LEUKOCYTE COUNT [5]: 8.83 x10E3/uL | LYMPHOCYTE [5]: 83.67% | MEAN CORPUSCULAR HEMOGLOBIN [5]: 23.93 pg | MEAN CORPUSCULAR HEMOGLOBIN CONCENTRATION [5]: 38.77 G/DL | MEAN CORPUSCULAR VOLUME [5]: 61.6 fL | MONOCYTE [5]: 2% | NEUTROPHIL [5]: 14% | PLATELET COUNT [5]: 1429 x10E3/uL | ALANINE AMINOTRANSFERASE [5]: 26 u/L | ALBUMIN [5]: 3.83 G/DL | ALKALINE PHOSPHATASE [5]: 312 u/L | ASPARTATE AMINOTRANSFERASE [5]: 48.33 u/L | BLOOD UREA NITROGEN [5]: 17 mg/dL | CHLORIDE [5]: 109.33 MEQ/L | CHOLESTEROL [5]: 73 mg/dL | CREATINE PHOSPHOKINASE [5]: 142 u/L | CREATININE [5]: 0.53 mg/dL | GLUCOSE [5]: 163.33 mg/dL | PHOSPHORUS [5]: 9.83 mg/dL | POTASSIUM [5]: 5.8 MEQ/L | SODIUM [5]: 151.33 MEQ/L | TOTAL BILIRUBIN [5]: 0.17 mg/dL | TOTAL PROTEIN [5]: 6.3 G/DL | BASOPHIL [6]: 0% | EOSINOPHIL [6]: 0% | ERYTHROCYTE COUNT [6]: 5.62 x10E6/uL | HEMATOCRIT [6]: 33.9% | HEMOGLOBIN [6]: 14.07 G/DL | LEUKOCYTE COUNT [6]: 10.7 x10E3/uL | LYMPHOCYTE [6]: 76.67% | MEAN CORPUSCULAR HEMOGLOBIN [6]: 25.07 pg | MEAN CORPUSCULAR HEMOGLOBIN CONCENTRATION [6]: 41.53 G/DL | MEAN CORPUSCULAR VOLUME [6]: 60.37 fL | MONOCYTE [6]: 2.33% | NEUTROPHIL [6]: 21% | PLATELET COUNT [6]: 995.67 x10E3/uL | ALANINE AMINOTRANSFERASE [6]: 34.67 u/L | ALBUMIN [6]: 3.7 G/DL | ALKALINE PHOSPHATASE [6]: 315.33 u/L | ASPARTATE AMINOTRANSFERASE [6]: 55.33 u/L | BLOOD UREA NITROGEN [6]: 16.33 mg/dL | CHLORIDE [6]: 112.33 MEQ/L | CHOLESTEROL [6]: 71.33 mg/dL | CREATINE PHOSPHOKINASE [6]: 127.33 u/L | CREATININE [6]: 0.6 mg/dL | GLUCOSE [6]: 173.33 mg/dL | PHOSPHORUS [6]: 10.27 mg/dL | POTASSIUM [6]: 5.83 MEQ/L | SODIUM [6]: 155 MEQ/L | TOTAL BILIRUBIN [6]: 0.23 mg/dL | TOTAL PROTEIN [6]: 6.1 G/DL
